Experiment [1] relates to GFP-14-3-3β and its binding proteins. The experiment can be described thus: GFP-14-3-3β co-IP with LC-MS/MS label-free quantification, untreated versus PP1c-treated. The arrangement: species or system human. The procedure: (§1) HeLa Kyoto cells expressing transiently transfected pEGFP(C1)-14-3-3β or pEGFP(C1) control plasmid, were incubated with 20 nM Calyculin A (# 9902 S, Cell Signaling Technology) for 12 min. Cells were washed twice on ice with cold PBS and after addition of 500 µL lysis buffer (100 mM NaCl, 10 mM Tris, 0.1% IGEPAL, 1 mM EDTA, 1 mM EGTA, 20 nM Calyculin A, 1x cOmplete Mini protease inhibitor cocktail (Sigma), 1 mM DTT, 1 mM MnCl2) cells were scraped from plates, lysed by 10 pushes through an injection needle (21 G, BD) and the insoluble fraction was pelleted by centrifugation (10 min, 10^4 rcf, 4 °C). Supernatants were then subjected to incubation with 1 µM recombinant phosphatase or buffer for 1 h at 30 °C. Next, we subjected samples to immunoprecipitation using α-GFP nanobodies covalently coupled to agarose beads (2 h, 4 °C, obtained from the EMBL PEPcore Core Facility). Beads were then washed three times with lysis buffer and samples were eluted in 1x LDS sample buffer (Thermo Fisher Scientific) by heating to 70 °C for 10 min.
(§2) The samples were then reduced with 25 mM dithiothreitol (10 min at 70 °C) and alkylated with 55 mM chloroacetamide (room temperature, 30 min, in the dark). Proteins were run on a precast 4–12% NuPAGE gel (ThermoFisher Scientific) for about 1 cm to concentrate the sample prior to in-gel tryptic digestion, which was performed according to the standard procedures. The peptides obtained were dried to completeness and resuspended in 12 µL of buffer A (0.1% FA), and 5 µL of sample were injected per MS measurement. The experiment was carried out in three independent replicates.
(§3) The samples were analyzed by LC-MS/MS on a Dionex Ultimate 3000 nano-HPLC coupled online to a Fusion Lumos Tribrid mass spectrometer (Thermo Fisher Scientific). Peptides were delivered to a trap column (75 µm × 2 cm, packed in-house with 5 µm C18 resin; Reprosil PUR AQ, Dr. Maisch) and washed using 0.1% FA at a flow rate of 5 µL/min for 10 min. Subsequently, peptides were transferred to an analytical column (75 µm × 45 cm, packed in-house with 3 µm C18 resin; Reprosil Gold) applying a flow rate of 300 nL/min and separated using a 60 min linear gradient from 4% to 32% LC solvent B (0.1% FA, 5% DMSO in ACN) in LC solvent A (0.1% FA in 5% DMSO). The eluate from the analytical column was sprayed via a stainless steel emitter (Thermo Fisher Scientific) at a source voltage of 2.1 kV into the mass spectrometer. The transfer capillary was heated to 275 °C. The Fusion Lumos was operated in positive ionization mode and data-dependent acquisition (DDA), automatically switching between MS1 and MS2 spectrum acquisition. Full scan MS1 spectra were recorded in the Orbitrap from 360 to 1300 m/z at a resolution of 60k (automatic gain control (AGC) target value of 4e5 charges, maximum injection time (maxIT) of 50 ms). Up to 20 peptide precursors were isolated (isolation window, 1.7 m/z; maximum injection time, 25 ms; and AGC value, 1e5), fragmented by high-energy collision-induced dissociation (HCD) using 30% normalized collision energy (NCE), and analyzed at a resolution of 15k in the Orbitrap. Precursor ions that were singly charged, unassigned, or with charge states >6+ were excluded. The dynamic exclusion duration of fragmented precursor ions was 20 s.
(§4) Peptide and protein identification and LFQ were performed using MaxQuant software (version 1.6.1.0)[64] by searching the data against all canonical protein sequences as annotated in the Swissprot reference database (human proteins only, 20193 entries, downloaded 22 March 2016, internally annotated with PFAM domains) using the embedded search engine Andromeda[65]. The MaxQuant search was performed using two variable modifications; oxidation of methionine and N-terminal protein acetylation. Carbamidomethylation on cysteines was specified as a fixed modification. Trypsin (Trypsin/P) was specified as the proteolytic enzyme with up to two allowed missed cleavage sites.

Experiment [2] relates to GFP-14-3-3β. The experiment can be described thus: GFP-14-3-3β co-IP with LC-MS/MS, untreated GFP-14-3-3β versus GFP control (14-3-3 interactome). It counts as binding, human. The procedure: as §1, §2, §3, §4
Where [3] appears, read: pairwise comparison PP1 vs untreated.
Where [4] appears, read: pairwise comparison untreated vs GFP.
Setting [5] is: PP1 vs untreated, LFQ intensities, 3 replicates each.
Where [6] appears, read: untreated vs GFP, LFQ intensities, 3 replicates each.
The mark [7] stands for this setting: GFP-14-3-3β co-IP LC-MS/MS, PP1 vs untreated, student's t-test, label-free quantification, 3 replicates each.
Setting [8] is: GFP-14-3-3β co-IP LC-MS/MS, untreated vs GFP, student's t-test, label-free quantification, 3 replicates each.
The mark [9] stands for this setting: PP1 vs untreated, LFQ intensities, replicates 1-3.
Setting [10] is: untreated vs GFP, LFQ intensities, replicates 1-3.
The mark [11] stands for this setting: pairwise comparison PP1 vs untreated, student's t-test, 3 replicates each, LC-MS/MS label-free quantification.
Setting [12] is: pairwise comparison untreated GFP-14-3-3β vs GFP, student's t-test, 3 replicates each, LC-MS/MS label-free quantification.
[13] abbreviates: PP1 vs untreated, label-free quantification.
Where [14] appears, read: untreated vs GFP, label-free quantification.

Consider TOMM40, for which, in experiment [1] (setting [3]), the “Difference (log2), PP1 vs untreated” value is -0.1328 log2. In experiment [2] (setting [4]), the “Difference (log2), untreated vs GFP” value is 1.138 log2.
For LGALS1, the “Difference (log2), PP1 vs untreated” value in experiment [1] (setting [5]) is recorded as 0.4051 log2. Also, the “Difference (log2), untreated vs GFP” value in experiment [2] (setting [6]) was -0.7235 log2.
As to EFTUD2, the “Difference (log2), PP1 vs untreated” value in experiment [1] (setting [7]) is -0.7202 log2. Further, in experiment [2] (setting [8]), the “Difference (log2), untreated vs GFP” value came out at 2.59 log2.
Take DPYSL3;CRMP1: the “Difference (log2), PP1 vs untreated” value in experiment [1] (log2 difference, pairwise comparison PP1 vs untreated, label-free quantification, 3 replicates each) is 2.547. In addition, the “Difference (log2), untreated vs GFP” value in experiment [2] (log2 difference, pairwise comparison untreated vs GFP, label-free quantification, 3 replicates each) is recorded as -3.981.
Regarding HSPA1B;HSPA1A, in experiment [1] (setting [9]), the “Difference (log2), PP1 vs untreated” value was -0.7937 log2. Moreover, in experiment [2] (setting [10]), the “Difference (log2), untreated vs GFP” value worked out at 0.2148 log2.
DHX9: in experiment [1] (setting [7]), the “Difference (log2), PP1 vs untreated” value was -0.3598 log2. The “Difference (log2), untreated vs GFP” value in experiment [2] (setting [8]) amounted to 1.512 log2.
Regarding PRKDC, in experiment [1] (setting [3]), the “Difference (log2), PP1 vs untreated” value is 0.07826 log2. The “Difference (log2), untreated vs GFP” value in experiment [2] (setting [4]) is recorded as -0.4154 log2.
Taken in the same sequence, the figures for ITPR3 were 0.1762 log2 and -0.007222 log2.
For FAM98A, the “Difference (log2), PP1 vs untreated” value in experiment [1] (setting [5]) came to 0.6235 log2. In addition, the “Difference (log2), untreated vs GFP” value in experiment [2] (setting [6]) is given as 0.9941 log2.
As to ABCF1, the “Difference (log2), PP1 vs untreated” value in experiment [1] (setting [5]) came to 0.4338 log2. For the same substance, the “Difference (log2), untreated vs GFP” value in experiment [2] (setting [6]) is reported as 1.553 log2.
Taken in the same sequence, the figures for HNRNPAB were 0.4916 log2 and 0.1502 log2.
As for PRPF8, the “Difference (log2), PP1 vs untreated” value in experiment [1] (setting [7]) was -0.1499 log2. Also, the “Difference (log2), untreated vs GFP” value in experiment [2] (setting [8]) worked out at 2.212 log2.
As to MYO18A, the “Difference (log2), PP1 vs untreated” value in experiment [1] (setting [11]) is -3.467 log2. For the same substance, the “Difference (log2), untreated vs GFP” value in experiment [2] (setting [12]) is given as 2.435 log2.
Take MKI67: the “Difference (log2), PP1 vs untreated” value in experiment [1] (setting [3]) worked out at 0.1166 log2. Also, the “Difference (log2), untreated vs GFP” value in experiment [2] (setting [4]) turned out to be 1.0535 log2.
For SUPT16H the same measures were 0.1332 log2 and 0.2233 log2.
In the case of WWTR1, in experiment [1] (setting [11]), the “Difference (log2), PP1 vs untreated” value is on record as -4.48 log2. Besides, the “Difference (log2), untreated vs GFP” value in experiment [2] (setting [12]) came out at 5.399 log2.
As to IFI16, the “Difference (log2), PP1 vs untreated” value in experiment [1] (setting [13]) was found to be 0.961 log2. In experiment [2] (setting [14]), the “Difference (log2), untreated vs GFP” value is reported as 0.868 log2.
Taken in the same sequence, the figures for EMD were 1.014 log2 and -1.504 log2.
On to SYNCRIP, for which the “Difference (log2), PP1 vs untreated” value in experiment [1] (setting [3]) is 0.2079 log2. Further, in experiment [2] (setting [4]), the “Difference (log2), untreated vs GFP” value is given as 0.5804 log2.
As for CD109, in experiment [1] (setting [5]), the “Difference (log2), PP1 vs untreated” value was determined as 0.7153 log2. The “Difference (log2), untreated vs GFP” value in experiment [2] (setting [6]) was -1.476 log2.
On to NONO, for which the “Difference (log2), PP1 vs untreated” value in experiment [1] (setting [9]) is recorded as -0.8439 log2. Further, in experiment [2] (setting [10]), the “Difference (log2), untreated vs GFP” value turned out to be 0.331 log2.
As for TJP1, the “Difference (log2), PP1 vs untreated” value in experiment [1] (setting [3]) is listed as -0.07001 log2. In experiment [2] (setting [4]), the “Difference (log2), untreated vs GFP” value is 1.92 log2.
Consider TIMM50, for which, in experiment [1] (setting [7]), the “Difference (log2), PP1 vs untreated” value is -0.2989 log2. Moreover, the “Difference (log2), untreated vs GFP” value in experiment [2] (setting [8]) turned out to be 1.085 log2.
In the case of DOCK7, in experiment [1] (setting [11]), the “Difference (log2), PP1 vs untreated” value is recorded as -5.0278 log2. The “Difference (log2), untreated vs GFP” value in experiment [2] (setting [12]) is reported as 5.106 log2.
As to LAMA5, in experiment [1] (setting [5]), the “Difference (log2), PP1 vs untreated” value is 0.4607 log2. The “Difference (log2), untreated vs GFP” value in experiment [2] (setting [6]) was -1.96 log2.
SOGA1: the “Difference (log2), PP1 vs untreated” value in experiment [1] (setting [13]) was 0.818 log2. Also, the “Difference (log2), untreated vs GFP” value in experiment [2] (setting [14]) is reported as -0.02242 log2.
As to HDAC2, the “Difference (log2), PP1 vs untreated” value in experiment [1] (setting [3]) stood at 0.1471 log2. Moreover, the “Difference (log2), untreated vs GFP” value in experiment [2] (setting [4]) was found to be 0.5775 log2.
